Results from US20070281909A1, “Creatine phosphate prodrugs, compositions and uses thereof” (XenoPort, Inc., priority 2006, published 2007).
Like-named read-outs stand apart in the source and are kept apart here.

Assays:
[1] = cited from earlier work
[2] = system: HEK cells expressing SMVT; assay: Effect of treatment on the creatine kinase system (intracellular creatine phosphate, ATP, creatine); type: cell-based, human; conditions: 100 μM, relative to buffer
[3] = system: HEK293 cells; assay: Restoration of cellular energy homeostasis following sodium azide treatment; type: cell-based, human; conditions: azide 20 minutes, then compound or control media 20 minutes; FIG. 12
[4] = healthy volunteers, oral creatine administration; cited from earlier work
[5] = system: H9C2 cells; type: cell-based, rat
[6] = cited from earlier work; remark: listed apart in the source
[7] = animals fed a diet containing up to 1%; cited from earlier work

SMILES | Adverse side effects ([1]; patients with cardiac diseases, intravenous injection up to 8 gm/day) | Percent Increase in Intracellular Concentrations, ATP ([2]; After 1 Hour) [%] | Percent Increase in Intracellular Concentrations, Creatine ([2]; After 1 Hour) [%] | Percent Increase in Intracellular Concentrations, Creatine Phosphate ([2]; After 1 Hour) [%] | Percent Increase in Intracellular Concentrations, ATP ([2]; After 3 Hours) [%] | Percent Increase in Intracellular Concentrations, Creatine ([2]; After 3 Hours) [%] | Percent Increase in Intracellular Concentrations, Creatine Phosphate ([2]; After 3 Hours) [%] | Reversal of azide-induced ATP depletion [3] | Increase of cerebral creatine phosphate [4] | Protection against 3-NP toxicity (ATP luminescence) [5] | Duration of increases in tissue creatine phosphate levels ([6]; following oral creatine supplementation) [days] | Overall increase in creatine phosphate levels by creatine supplementation ([6]; supplementation typically takes weeks) [%] | Adverse side effects ([1]; athletes and body builders, 2-3 gm/day) | Adverse effects [7]
CN(CC(=O)O)C(=N)NP(=O)(O)O [Creatine Phosphate, creatine phosphate] | without adverse side effects | 27 | −6 | 15 | 10 | 0 | 5 | – | – | – | – | – | – | –
CN(CC(=O)O)C(=N)N [Creatine, creatine] | – | 5 | 8 | 26 | −5 | 40 | 30 | not protective | about 10% | not | > 14 | < 50 | – | –
CN(CC(=O)O)C(=N)N.O [creatine monohydrate] | – | – | – | – | – | – | – | – | – | – | – | – | without adverse side effects | –
NC1=NCCN1CC(=O)O [cyclocreatine] | – | – | – | – | – | – | – | – | – | – | – | – | – | do not exhibit adverse effects
